The values that follow come from PMC11987180 (Biology Direct, 2025).

Assay [1] addresses T1, human indolethylamine N-methyltransferase (hINMT) (Homo sapiens, UniProt O95050). Description: quinoline-based continuous fluorometric methylation assay. Format: biochemical.
The target of assay [2] is T1, human indolethylamine N-methyltransferase (hINMT). Description: thermal shift assay. The class given is binding.

T1 sequence (O95050 whole entry): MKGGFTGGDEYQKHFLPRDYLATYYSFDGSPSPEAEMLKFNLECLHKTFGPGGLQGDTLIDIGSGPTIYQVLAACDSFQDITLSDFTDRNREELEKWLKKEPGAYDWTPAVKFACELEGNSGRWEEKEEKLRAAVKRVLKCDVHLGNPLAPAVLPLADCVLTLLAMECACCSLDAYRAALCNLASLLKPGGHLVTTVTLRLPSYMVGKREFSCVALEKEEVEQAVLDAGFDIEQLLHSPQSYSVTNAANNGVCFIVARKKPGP

As usually defined, the IC50 is the midpoint of a concentration-inhibition curve. With `CNS(=O)(=O)CCc1ccc2[nH]cc(C3CCN(C)CC3)c2c1` [Naratriptan], the IC50 in assay [1] was 188.5 ± 1.8 µM.
For orientation: Kd means the concentration at which binding is half-saturated. In the case of `C[S+](CC[C@H](N)C(=O)[O-])C[C@H]1O[C@@H](n2cnc3c(N)ncnc32)[C@H](O)[C@@H]1O` (some centres unmarked) [SAM], the Kd in assay [2] is 55.6 ± 2.6 µM.
